Measured values published in PubChem BioAssay AID463074 (Broad Institute, 2010).
Where “and” joins values, the source holds several entries; their conditions need not be identical. Equal values may be shown once. Calls of active or inactive are those of the source.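 How the source made its calls: active means AC50 no more than tenfold above the top dose tested, or full inhibition at every dose with a flat fit (cut at about 19 µM in these data); inconclusive means flat curve fit with inhibition between 30% and 70%, or poor fit; inactive means AC50 more than tenfold above the top dose tested.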

System: HMLE_sh_eGFP viability, CellTiter-Glo luminescence, 72 h
Assay: viability loss of HMLE_sh_eGFP cells – cell-based, luminescence, counter-screen for HMLE_sh_ECad selective toxicity project, dose response (AID 463074);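 further: counterscreen control line to flag general toxicity for the HMLE_sh_ECad screen; potency for loss of viability as luminescence drops below DMSO wells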

SMILES	AC50
CCCCC1CCC(C(=O)N(CC(C)C)c2c(N)n(Cc3ccccc3)c(=O)[nH]c2=O)CC1 (stereo unspecified)	4.62 µM
CCn1c(N2CCN(S(=O)(=O)c3ccc(F)cc3)CC2)nc2ccccc21	> 19.5 µM (inactive)
Oc1ccc(-c2cc(-c3ccc(O)cc3)nc(-c3ccccc3)n2)cc1	3.77 µM
CC(=O)Nc1ccc(SCC(=O)c2cc(C)n(Cc3cccs3)c2C)cc1	4.66 µM
Cc1c(C)n(CCc2ccccc2)c2ncnc(NCCCN(C)C)c12	5.52 µM
O=C(c1ccc(Cl)cc1)c1c[nH]c(C(=O)NNc2ccccc2)c1	1.85 µM
Oc1cccc(/C=C/c2ccc3cccc(O)c3n2)c1	4.83 µM
Cc1cc2nnc(SCC(=O)NCc3ccco3)n2c2ccccc12	4.5 µM
COc1ccc2nc(NC(=O)c3cccc(-c4cc5ccccc5oc4=O)c3)sc2c1	4.88 µM
CC(=O)Nc1ccc(OCC(O)CN2CCN(c3ccc(C)c(Cl)c3)CC2)cc1 (stereo unspecified)	8.97 µM
CCOC(=O)Nc1ccc(Cc2ccncc2)cc1	> 19.5 µM (inactive)
CCCCCCOc1ccc(/C(C)=N/NC2=NCCN2)cc1[N+](=O)[O-]	3.69 µM
Cc1[nH]nc2c1C(c1ccc(-c3ccc(Cl)cc3)o1)C(C#N)=C(N)O2 (stereo unspecified)	7.25 µM
Cc1cc(C)nc(NC(=O)c2ccc(COc3ccccc3Cl)cc2)c1	0.401 µM
C/C(=N\OCc1nc2ccccc2c(=O)n1/N=C/c1cc([N+](=O)[O-])ccc1O)c1ccccc1	16 µM
C[C@]12CC[C@H]3C(CCC4(O)CC(O)CC[C@]34C=O)C1=CC[C@H]2c1ccc(=O)oc1 (stereo partly specified)	3.6 µM
N#Cc1c([N+](=O)[O-])cc([N+](=O)[O-])cc1S(=O)(=O)Cc1ccccc1	3.62 µM
CCN(CC)CCOc1ccc(/C(=C(/Cl)c2ccccc2)c2ccccc2)cc1	0.992 µM and 2.55 µM
NS(=O)(=O)c1ccc(N=Cc2c(O)n(C3CCCCC3)c(=O)n(C3CCCCC3)c2=O)cc1	3.81 µM
Cc1ccc(NNC(=O)c2ccno2)cc1Cl	4 µM
CCc1ccc(-c2cc(C(=O)N3N=C(C(F)F)CC3(O)C(F)F)c3ccccc3n2)cc1 (stereo unspecified)	6.4 µM

SMILES	AC50
O=C(CN1CCCCCC1)Nc1ccccc1Oc1ccccc1	0.808 µM
CCOC(=O)/C(C#N)=C1\Nc2ccccc2N=C1N(CC(C)C)CC(C)C	8.73 µM
CNc1oc(-c2ccc(Cl)cc2)nc1P(=O)(c1ccccc1)c1ccccc1	9.43 µM
O=C(Nc1ccccc1)C1=C[C@@H](c2csc3ccccc23)C[C@@H](OCc2ccc(CO)cc2)O1	4.11 µM
C[C@@H]1CC=C[C@H]2[C@H]1C(=O)N(Cc1ccccc1)[C@H]2c1ccc2ccccc2c1	6.67 µM
Nc1nc(Nc2ccccc2)nc(NC2CCCCC2)c1[N+](=O)[O-]	6.81 µM
CCc1cc2cc(C)cc(C)c2nc1SCC(=O)N1CCN(C(=O)c2ccco2)CC1	13.4 µM
CCCCCCSc1cc(-c2nc3cnccn3c2NCCCC)ccc1OC	6.71 µM
CCCc1ccc(-c2cc(NC(=O)CSc3nnc(N)s3)n(-c3ccccc3)n2)cc1	6.67 µM
O=C(Nc1ccc(-c2csc(Nc3cccc(C(F)(F)F)c3)n2)cc1)c1cc([N+](=O)[O-])cc(C(F)(F)F)c1	1.93 µM
CC(C)=CCc1c(O)cc2c(c1O)C(=O)CC(c1ccc(O)cc1)O2 (stereo unspecified)	3.74 µM
Cc1ccc(-n2nnnc2SC(C(=O)c2c[nH]c3ccccc23)c2ccccc2)cc1 (stereo unspecified)	3.21 µM
COc1ccc(C)cc1NC(=O)CSc1nnc(COc2ccc(Cl)cc2)n1Cc1ccco1	8.28 µM
O=C(Nc1cccc(C(F)(F)F)c1)Nc1ccc(N2CCCC2)c(S(=O)(=O)Nc2ccccc2Cl)c1	1.33 µM
C[C@]12CC[C@H](O)C[C@H]1CC[C@@H]1[C@@H]2C[C@@H](O)[C@]2(C)[C@@H](C3=CC(=O)OC3)CC[C@]12O	0.654 µM
CN1CCN(C2=Cc3cc(Cl)ccc3Sc3cc(F)ccc32)CC1	7.29 µM
O=c1c2ccccc2nc(/C=C/c2ccccc2F)n1-c1ccccc1O	6.44 µM
CC(NCC(O)COCCC12CC3CC(CC(C3)C1)C2)c1ccccc1 (stereo unspecified)	3.32 µM
CSc1ccc2c(c1)C(N1CCN(C)CC1)Cc1ccccc1S2 (stereo unspecified)	15.1 µM
Cc1ccc(Cl)cc1NC(=S)N/N=C/c1cccc2ccccc12	0.298 µM
